This test concerns the target G-actin (Prodan-G-actin; actin) (Oryctolagus cuniculus, UniProt P68135). Description: X-ray crystal structure. It is filed as binding. Particulars: nucleotide site.

Consider `Nc1ncnc2c1ncn2[C@@H]1O[C@H](COP(=O)(O)OP(=O)(O)O)[C@@H](O)[C@H]1O` [ADP], for which, under “actin co-crystallised with SF-01 or GC-04, Ca2+”, the X-ray crystal structure entry is “complexes with GC-04 and SF-01 is occupied by ADP”. As to `Nc1ncnc2c1ncn2[C@@H]1O[C@H](COP(=O)(O)OP(=O)(O)OP(=O)(O)O)[C@@H](O)[C@H]1O` [ATP], the X-ray crystal structure result (actin co-crystallised with kabiramide C, Ca2+) was “ATP is bound to the actin in the KabC complex”.
